Like-named read-outs stand apart in the source and are kept apart here.
Columns and labels:
Drosophila OR10a = biological target: T1, Drosophila OR10a (Drosophila melanogaster, UniProt Q9VYZ1); test: Calcium ion fluorescence (GCaMP6) assay, OR10a stable HEK293 cell line; type: cell-based; settings: for OR10a response (VUAA1-normalized) at 1 μM / OR10a response (VUAA1-normalized) at 10 μM / OR10a response (VUAA1-normalized) at 100 μM: OR10a cell line
T1 construct: expressed in transfected cells
T1 sequence (Q9VYZ1 1-406): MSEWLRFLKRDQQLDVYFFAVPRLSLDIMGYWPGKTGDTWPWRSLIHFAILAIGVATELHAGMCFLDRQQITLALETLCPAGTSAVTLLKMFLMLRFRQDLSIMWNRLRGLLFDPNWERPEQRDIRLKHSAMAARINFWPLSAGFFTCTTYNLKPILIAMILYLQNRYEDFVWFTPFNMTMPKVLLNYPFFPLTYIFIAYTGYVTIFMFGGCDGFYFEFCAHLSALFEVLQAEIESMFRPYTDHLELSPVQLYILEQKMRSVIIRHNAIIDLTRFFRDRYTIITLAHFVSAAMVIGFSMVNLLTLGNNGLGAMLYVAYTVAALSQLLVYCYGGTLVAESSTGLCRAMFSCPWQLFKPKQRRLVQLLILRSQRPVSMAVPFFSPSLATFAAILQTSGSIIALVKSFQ
T1 sequence (Q9VNB5 1-486 partner): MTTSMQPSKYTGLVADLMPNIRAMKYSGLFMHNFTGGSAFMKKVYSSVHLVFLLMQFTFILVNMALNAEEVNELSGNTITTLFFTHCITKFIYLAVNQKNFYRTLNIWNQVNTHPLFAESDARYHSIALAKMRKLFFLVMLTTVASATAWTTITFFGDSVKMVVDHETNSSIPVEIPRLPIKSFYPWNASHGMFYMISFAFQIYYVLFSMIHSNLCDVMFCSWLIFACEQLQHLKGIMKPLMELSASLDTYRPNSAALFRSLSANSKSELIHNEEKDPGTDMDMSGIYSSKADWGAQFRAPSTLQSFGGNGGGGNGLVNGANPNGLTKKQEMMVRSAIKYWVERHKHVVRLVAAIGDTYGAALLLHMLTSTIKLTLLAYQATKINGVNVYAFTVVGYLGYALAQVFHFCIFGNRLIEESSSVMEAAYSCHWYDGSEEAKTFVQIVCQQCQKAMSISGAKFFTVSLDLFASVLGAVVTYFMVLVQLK
Outline: (§1)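 HEK293 lines stably expressing each Drosophila OR with GCaMP6, doxycycline-induced (1 μg/mL) 48 or 72 h. Fluorescence recorded 5 s baseline then 30 s after VOC injection at pH 7.3; ΔF=(FMAX−F0)/F0, normalized to 50 µM VUAA1 response per line, triplicate wells averaged; concentration series 0.01–100 μM.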

Drosophila OR71a = biological target: T2, Drosophila OR71a (Drosophila melanogaster, UniProt Q9VUK5); test: Calcium ion fluorescence (GCaMP6) assay, OR71a stable HEK293 cell line; type: cell-based; settings: for OR71a response (VUAA1-normalized) at 1 μM / OR71a response (VUAA1-normalized) at 10 μM / OR71a response (VUAA1-normalized) at 100 μM / Average response: OR71a cell line; for Average response: VUAA1-normalized response, mean of biological replicates; for activation at 1 µM / activation at 10 µM / activation at 100 µM: HEK293, read-out: OR71a response (VUAA1-normalized response)
T2 construct: expressed in transfected cells
T2 sequence (Q9VUK5 1-378): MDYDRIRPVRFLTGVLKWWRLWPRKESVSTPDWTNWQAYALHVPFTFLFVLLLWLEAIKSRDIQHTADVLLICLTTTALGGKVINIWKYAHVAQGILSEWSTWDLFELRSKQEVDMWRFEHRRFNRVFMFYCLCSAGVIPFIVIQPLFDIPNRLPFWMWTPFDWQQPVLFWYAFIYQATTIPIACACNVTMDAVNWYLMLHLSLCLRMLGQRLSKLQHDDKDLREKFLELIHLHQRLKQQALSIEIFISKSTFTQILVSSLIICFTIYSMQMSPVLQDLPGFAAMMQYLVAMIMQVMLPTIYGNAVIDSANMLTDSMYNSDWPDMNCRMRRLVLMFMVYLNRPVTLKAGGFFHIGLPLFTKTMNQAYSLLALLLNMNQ
T2 sequence (Q9VNB5 1-486 partner): T1 sequence (Q9VNB5 1-486 partner)
Outline: as §1

[1] = HEK293, 1 μM VOC, 50 μM VUAA1 = 1, responses not exceeding 0.05 considered 0, read-out: OR10a Average response (VUAA1-normalized)
[2] = HEK293, 10 μM VOC, 50 μM VUAA1 = 1, responses not exceeding 0.05 considered 0, read-out: OR10a Average response (VUAA1-normalized)
[3] = HEK293, 100 μM VOC, 50 μM VUAA1 = 1, responses not exceeding 0.05 considered 0, read-out: OR10a Average response (VUAA1-normalized)
[4] = ligand concentration 1 (unit not given), threshold 0.05, below shown as 0
[5] = ligand concentration 10 (unit not given), threshold 0.05, below shown as 0
[6] = ligand concentration 100 (unit not given), threshold 0.05, below shown as 0
[7] = ligand concentration 1 (unit not given), 0.05 threshold, values below shown as 0
[8] = ligand concentration 10 (unit not given), 0.05 threshold, values below shown as 0
[9] = ligand concentration 100 (unit not given), 0.05 threshold, values below shown as 0
[10] = 1 μM VOC, 50 μM VUAA1 = 1, responses not exceeding 0.05 considered 0
[11] = 10 μM VOC, 50 μM VUAA1 = 1, responses not exceeding 0.05 considered 0
[12] = 100 μM VOC, 50 μM VUAA1 = 1, responses not exceeding 0.05 considered 0
[13] = HEK293, read-out: OR10a response (VUAA1-normalized response), VOC concentration 1 μM
[14] = HEK293, read-out: OR10a response (VUAA1-normalized response), VOC concentration 10 μM
[15] = HEK293, read-out: OR10a response (VUAA1-normalized response), VOC concentration 100 μM
[16] = concentration 1, normalized fluorescence change, values below 0.05 threshold given as 0
[17] = concentration 10, normalized fluorescence change, values below 0.05 threshold given as 0
[18] = concentration 100, normalized fluorescence change, values below 0.05 threshold given as 0

Molecule	activation at 1 µM (Drosophila OR10a; [1]) [%]	activation at 10 µM (Drosophila OR10a; [2]) [%]	activation at 100 µM (Drosophila OR10a; [3]) [%]	DF norm AVERAGE OR10a (Drosophila OR10a; [4])	DF norm AVERAGE OR10a (Drosophila OR10a; [5])	DF norm AVERAGE OR10a (Drosophila OR10a; [6])	Average response (Drosophila OR71a; cc. 1 µM)	Average response (Drosophila OR71a; cc. 10 µM)	Average response (Drosophila OR71a; cc. 100 µM)	DF norm AVERAGE OR71a (Drosophila OR71a; [4])	DF norm AVERAGE OR71a (Drosophila OR71a; [5])	DF norm AVERAGE OR71a (Drosophila OR71a; [6])	OR10a Average response (VUAA1-normalized) (Drosophila OR10a; [10])	OR10a Average response (VUAA1-normalized) (Drosophila OR10a; [11])	OR10a Average response (VUAA1-normalized) (Drosophila OR10a; [12])	DF norm AVERAGE OR71a (Drosophila OR71a; [16])	DF norm AVERAGE OR71a (Drosophila OR71a; [17])	DF norm AVERAGE OR71a (Drosophila OR71a; [18])	also measured
CCCCCCCCC=O [nonanal]	0	3	0	0	0	0	0.00	0.00	0.00	0	0	0							OR10a response (VUAA1-normalized) at 1 μM (Drosophila OR10a; VOC concentration 1 μM): 0.00; OR10a response (VUAA1-normalized) at 10 μM (Drosophila OR10a; VOC concentration 10 μM): 0.00; OR10a response (VUAA1-normalized) at 100 μM (Drosophila OR10a; VOC concentration 100 μM): 0.00; OR71a response (VUAA1-normalized) at 1 μM (Drosophila OR71a; VOC concentration 1 μM): 0.00; OR71a response (VUAA1-normalized) at 10 μM (Drosophila OR71a; VOC concentration 10 μM): 0.00; OR71a response (VUAA1-normalized) at 100 μM (Drosophila OR71a; VOC concentration 100 μM): 0.00
C=Cc1ccccc1 [styrene]							0.027	0.0458	0.00724										activation at 1 µM (Drosophila OR10a; HEK293, read-out: OR10a Average response (VUAA1-normalized), 1 μM VOC, 50 μM VUAA1 = 1, responses not exceeding 0.05 considered 0): 3%; activation at 10 µM (Drosophila OR10a; HEK293, read-out: OR10a Average response (VUAA1-normalized), 10 μM VOC, 50 μM VUAA1 = 1, responses not exceeding 0.05 considered 0): 0%; activation at 100 µM (Drosophila OR10a; HEK293, read-out: OR10a Average response (VUAA1-normalized), 100 μM VOC, 50 μM VUAA1 = 1, responses not exceeding 0.05 considered 0): 14%; OR10a response (VUAA1-normalized) at 1 μM (Drosophila OR10a; VOC concentration 1 μM): 0.00; OR10a response (VUAA1-normalized) at 10 μM (Drosophila OR10a; VOC concentration 10 μM): 0.00; OR10a response (VUAA1-normalized) at 100 μM (Drosophila OR10a; VOC concentration 100 μM): 0.14; DF norm AVERAGE OR10a (Drosophila OR10a; [7]): 0; DF norm AVERAGE OR10a (Drosophila OR10a; [8]): 0; DF norm AVERAGE OR10a (Drosophila OR10a; [9]): 0.144; OR71a response (VUAA1-normalized) at 1 μM (Drosophila OR71a; VOC concentration 1 μM): 0.00; OR71a response (VUAA1-normalized) at 10 μM (Drosophila OR71a; VOC concentration 10 μM): 0.00; OR71a response (VUAA1-normalized) at 100 μM (Drosophila OR71a; VOC concentration 100 μM): 0.00; DF norm AVERAGE OR71a (Drosophila OR71a; [7]): 0; DF norm AVERAGE OR71a (Drosophila OR71a; [8]): 0; DF norm AVERAGE OR71a (Drosophila OR71a; [9]): 0
CC/C=C/CCO [e3-hexenol]				0	0	0.07404	0.00	0.0432	0.0275	0	0	0	0.0153	0.00	0.074				
CC(=O)OCCC(C)C [isopentyl acetate]	9	19	10	0.08825	0.1921	0.101	0.0333	0.037	0.0218	0	0	0							activation at 1 µM (Drosophila OR10a; [13]): 9%; activation at 10 µM (Drosophila OR10a; [14]): 19%; activation at 100 µM (Drosophila OR10a; [15]): 10%; activation at 1 µM (Drosophila OR71a): 0%; activation at 10 µM (Drosophila OR71a): 0%; activation at 100 µM (Drosophila OR71a): 0%
(+)-beta-cedrene							0.0243	0.03	0.00				0.0218	0.0187	0.00	0	0	0	DF norm AVERAGE OR10a (Drosophila OR10a): 0; OR10a response (VUAA1-normalized response) (Drosophila OR10a; VOC concentration 1 μM): 0.00; OR10a response (VUAA1-normalized response) (Drosophila OR10a; VOC concentration 10 μM): 0.00; OR10a response (VUAA1-normalized response) (Drosophila OR10a; VOC concentration 100 μM): 0.00; OR71a response (VUAA1-normalized response) (Drosophila OR71a; VOC concentration 1 μM): 0.00; OR71a response (VUAA1-normalized response) (Drosophila OR71a; VOC concentration 10 μM): 0.00; OR71a response (VUAA1-normalized response) (Drosophila OR71a; VOC concentration 100 μM): 0.00
Cc1cccc(O)c1 [3-methylphenol]	9	6	13				0.03	0.0152	0.0133							0	0	0	activation at 1 µM (Drosophila OR10a; [13]): 9%; activation at 10 µM (Drosophila OR10a; [14]): 6%; activation at 100 µM (Drosophila OR10a; [15]): 13%; activation at 1 µM (Drosophila OR71a): 0%; activation at 10 µM (Drosophila OR71a): 0%; activation at 100 µM (Drosophila OR71a): 0%
C=C(C)[C@H]1CC=C(C)CC1 [(R)-(+)-limonene]							0.0368	0.00	0.00				0.00	0.12	0.0152	0	0	0	OR10a response (VUAA1-normalized response) (Drosophila OR10a; VOC concentration 1 μM): 0.00; OR10a response (VUAA1-normalized response) (Drosophila OR10a; VOC concentration 10 μM): 0.12; OR10a response (VUAA1-normalized response) (Drosophila OR10a; VOC concentration 100 μM): 0.00; OR71a response (VUAA1-normalized response) (Drosophila OR71a; VOC concentration 1 μM): 0.00; OR71a response (VUAA1-normalized response) (Drosophila OR71a; VOC concentration 10 μM): 0.00; OR71a response (VUAA1-normalized response) (Drosophila OR71a; VOC concentration 100 μM): 0.00
